According to US8889876B2, “Histone deacetylase inhibitors and uses thereof” (Jiangsu Hengyi Pharmaceutical Co., Ltd., priority 2008, dated 2014):
Converted amounts (≈) assume the structure as drawn.

How the values were obtained:
[1] = system: histone deacetylase; assay: in vitro inhibition activity on histone deacetylase (rat liver homogenate, MAL fluorescent substrate); assay type: biochemical, rats; conditions: n = 4, 37° C., 16 hours
Procedure: A 96-well plate (black) for determining […] is made by Costar Company of U.S. The histone deacetylase is obtained by homogenization of liver of rats. The histone deacetylase reacts with small molecular fluorescent substrate MAL such that the substrate MAL is deacetylated to become ML.
The compound to be detected is dissolved with 200 μL of DMSO. The stock solution of the compound to be detected is diluted with PBS to a concentration of the working solution. The histone deacetylase, the MAL fluorescent substrate and the compound to be detected are mixed in a water bath at 37° C. and reacted 16 hours. The final concentration of the compound to be detected is: MS275 and its similar compound: 10, 100 μmol/.
The reaction solution is extracted with ethyl acetate. The extract is pumped in vacuum and thereto added 110 μL of methanol (40%). Taking 50 μL/well to a 96-well plate and making a fluorescent detection at 325/390 nm.
The negative control wherein histone deacetylase is not added to the reaction is 100% inhibition. The control that only contains histone deacetylase without any inhibitor is the background (0% inhibition). The inhibition rate of the sample to be detected=(the detected fluorescent value−the background)/(the fluorescent value of the negative control−background)×100%
The inhibition rate and the standard deviation in the results are the average inhibition percentage and the standard deviation of each parallel well in each dosage group.

[2] = system: histone deacetylase; assay: in vitro inhibition of histone deacetylase by HDAC inhibitor screening kit (Biovision K340-100); assay type: biochemical
Procedure: An assay for determining the in vitro inhibition activity of the compound on histone deacetylase is conducted according to the specification of HDAC inhibitor screeing kid (Biovision Company/Catalog #K340-100). […]

[3] = system: K562: human chronic myeloid leukemia cell strain; assay: MTT cytotoxicity to tumor cell strains, K562; assay type: cell-based; conditions: Homo sapiens, read-out: Cell activity (IC50, μg/ml) K562
Procedure: (§1) The cytotoxicity of samples to tumor cell strains is determined through MTT.

[4] = system: A549 (human lung adenocarcinoma cells); assay: MTT cytotoxicity to tumor cell strains, A549; assay type: cell-based; conditions: Homo sapiens, read-out: Cell activity (IC50, μg/ml) A549
Procedure: as §1

[5] = system: Hut 78 (T-cell Leukemia cell); assay: MTT cytotoxicity to tumor cell strains, Hut 78; assay type: cell-based; conditions: Homo sapiens, HuT78; Hut 78, MTT; read-out: Cell activity (IC50, μg/ml) Hut 78
Procedure: as §1

[6] = system: Hut78 T-cell Leukemia cell; assay: CCK-8 proliferation inhibition, Hut78; assay type: cell-based; conditions: Homo sapiens, read-out: Hut-78 (inhibition %); for inhibition at 10 µM: HuT78, 10 μM; for inhibition at 100 µM: HuT78, 100 μM
Summary of the method: (§2)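 Growth inhibition rate measured by CCK-8 in human cancer cell lines at 100 μM and 10 μM compound.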

[7] = system: PANC-1 human pancreatic cancer cells; assay: CCK-8 proliferation inhibition, PANC-1; assay type: cell-based; conditions: Homo sapiens; for inhibition at 10 µM: PANC-1, 10 μM; for inhibition at 100 µM: PANC-1, 100 μM
Summary of the method: as §2

[8] = system: Jurkat E6-1 human T-cell lymphoma; assay: CCK-8 proliferation inhibition, Jurkat E6-1; assay type: cell-based; conditions: Homo sapiens; for inhibition at 10 µM: Jurkat E6.1, 10 μM; for inhibition at 100 µM: Jurkat E6.1, 100 μM
Summary of the method: as §2

[9] = system: K562 human chronic myeloid leukemia cells; assay: CCK-8 proliferation inhibition, K562; assay type: cell-based; conditions: Homo sapiens; for inhibition at 10 µM: K562, 10 μM; for inhibition at 100 µM: K562, 100 μM
Summary of the method: as §2

[10] = system: A549 human lung cancer cells; assay: CCK-8 proliferation inhibition, A549; assay type: cell-based; conditions: Homo sapiens, A549, CCK-8 method; for inhibition at 10 µM: compound concentration 10 μM; for inhibition at 100 µM: compound concentration 100 μM
Summary of the method: as §2

[11] = system: MDA-MB-435s human breast cancer cells; assay: CCK-8 proliferation inhibition, MDA-MB-435s; assay type: cell-based; conditions: Homo sapiens, MDA-MB-435S, CCK-8 method; for inhibition at 10 µM: compound concentration 10 μM; for inhibition at 100 µM: compound concentration 100 μM
Summary of the method: as §2

[12] = system: Hep3B2.1-7 human liver cancer cells; assay: CCK-8 proliferation inhibition, Hep3B2.1-7; assay type: cell-based; conditions: Homo sapiens, Hep3B, CCK-8 method; for inhibition at 10 µM: compound concentration 10 μM; for inhibition at 100 µM: compound concentration 100 μM
Summary of the method: as §2

[13] = system: PC-3 human prostate cancer; assay: CCK-8 proliferation inhibition, PC-3; assay type: cell-based; conditions: Homo sapiens, CCK-8 method; for inhibition at 10 µM: compound concentration 10 μM; for inhibition at 100 µM: compound concentration 100 μM
Summary of the method: as §2

[14] = system: Colo320 human rectal cancer cells; assay: CCK-8 proliferation inhibition, Colo320; assay type: cell-based; conditions: Homo sapiens, COLO 320, CCK-8 method; for inhibition at 10 µM: compound concentration 10 μM; for inhibition at 100 µM: compound concentration 100 μM
Summary of the method: as §2

SMILES	inhibition rate % average number ([1]; dosage 10 μmol/L) [%]	inhibition rate % average number ([1]; dosage 100 μmol/L) [%]	Inhibition rate(%) ([2]; 3.91 μM)	Inhibition rate(%) ([2]; 62.5 μM)	Inhibition rate(%) ([2]; 2 mM)	IC50 [3] [µg/mL]	IC50 [4] [µg/mL]	IC50 [5] [µg/mL]	inhibition at 10 µM [6] [%]	inhibition at 100 µM [6] [%]	inhibition at 10 µM [7] [%]	inhibition at 100 µM [7] [%]	inhibition at 10 µM [8] [%]	inhibition at 100 µM [8] [%]	inhibition at 10 µM [9] [%]	inhibition at 100 µM [9] [%]	inhibition at 10 µM [10] [%]	inhibition at 100 µM [10] [%]	inhibition at 10 µM [11] [%]	inhibition at 100 µM [11] [%]	also measured
Nc1ncccc1NC(=O)c1ccc(CNC(=O)OCc2cccnc2)cc1 [V-4, N-(2-amino-3-pyridyl)-4-[(3-pyridylmethoxyacyl)aminomethyl]benzamide]	1.644	12.033	9.4	19.8	65.2	> 100	> 100	4.21 (≈ 11.2 µM)	36	67.2	40.2	65.4	48.5	79.3	22.4	30.8	50.6	89.7	26.7	87.5	inhibition at 10 µM [12]: 2.6%; inhibition at 100 µM [12]: 37.4%; inhibition at 10 µM [13]: 79.5%; inhibition at 100 µM [13]: 91.5%; inhibition at 10 µM [14]: 33.2%; inhibition at 100 µM [14]: 78.3%
Nc1cnccc1NC(=O)c1ccc(CNC(=O)OCc2cccnc2)cc1 [V-5]	9.422	37.240	7.6	28.0	77.1	> 100	> 100	0.4 (≈ 1.06 µM)	43.4	72.8	20.7	74.1	58.5	85.9	21	64.4	65.6	84.8	35.8	86.9	inhibition at 10 µM [12]: 31.2%; inhibition at 100 µM [12]: 53.6%; inhibition at 10 µM [13]: 90.3%; inhibition at 100 µM [13]: 92.4%; inhibition at 10 µM [14]: 39.6%; inhibition at 100 µM [14]: 92.9%
